{"source": "patent US20250221932A1", "about": "“IMMUNE ENHANCEMENT OF CANCER TREATMENT” (Spark Therapeutics, Inc., priority 2022, published 2025)", "key": {"[1]": {"test_system": "serum cytokines/chemokines", "assay": "Serum cytokine levels 4 hours after dosing in the AML model", "assay_type": "in vivo, mice (C57BL/6)", "settings": "4 hours after first i.v. dose, 50 μg", "experimental": "(§1) Three days post-tumor cell injection, treatment (vehicle, DNA-LNP (10 μg), ADU-S100 (50 μg)) was provided by 100 μL i.v. administration given three times (day 0, 3, 6). Vehicle was made of 20% Glucose/PBS solution. LNP composition (in mole %) was Lipid 9, ˜50% (Lipid 9 is further described in Section I.A. supra and Sabnis et al., (2018) Molecular Therapy 26:6, 1509-1519); C14-PEG2000, ˜1.5%; cholesterol, ˜38.5%; and distearoylphosphatidylcholine (DSPC), ˜10%. ADU-S100 is a STING agonist (MedChemExpress).\n(§2) Serum was collected 4 hours after the first dose for cytokine/chemokine analyses. Mice (n=8) were observed daily for abnormalities and euthanized individually when the animal reached the humane endpoint.\nThree days post-tumor cell injection, treatment (vehicle, DNA-LNP (5 μg), DNA-LNP2 (5 μg)) was provided by 100 μL i.v. administration given three times (day 0, 3, 6). Serum was collected 4 hours after the first dose for cytokine/chemokine analyses. Mice (n=8) were observed daily for abnormalities and euthanized individually when the animal reached the humane endpoint."}, "[2]": {"test_system": "C1498 cells", "assay": "Acute myeloid leukemia (AML) model, survival", "assay_type": "in vivo, mice (C57BL/6)", "settings": "50 μg i.v. day 0, 3, 6; FIG. 9", "experimental": "The ability of nanoparticle dsDNA delivery to inhibit leukemia was evaluated in a mouse model for acute myeloid leukemia (AML). The AML model was established by intravenously (i.v.) injecting C57BL/6 mice with 1×10^6 C1498 cells. (See Zhang et al., Blood 2009; 114 (8): 1545-1552 and Curran et al., 2016, Cell Reports 15, 2357-2366).\nas §1, §2\nThe ability of nanoparticle dsDNA delivery to inhibit leukemia was evaluated in the AML mouse model described in Example 5. Three days post-tumor cell injection, administration of vehicle, LNP (same amount of LNP as used in 5 μg DNA-LNP), DNA-LNP (1 μg), DNA-LNP (5 μg) was provided by 100 μL i.v. given three times (day 0, 3, 6). […]"}}}
{"smiles": "Nc1ncnc2c1ncn2[C@@H]1O[C@@H]2COP(=O)([S-])O[C@@H]3[C@H](O)[C@@H](COP([O-])(=S)O[C@H]2[C@H]1O)O[C@H]3n1cnc2c(N)ncnc21.[Na+].[Na+]", "note": "(stereo partly shown) [ADU-S100]", "values": [{"measurement": "Serum level GRO alpha, Average", "setting": "[1]", "value": 134, "unit": "pg/mL"}, {"measurement": "Serum level IFN alpha, Average", "setting": "[1]", "value": 1775, "unit": "pg/mL"}, {"measurement": "Serum level IFN beta, Average", "setting": "[1]", "value": 2819, "unit": "pg/mL"}, {"measurement": "Serum level IFN gamma, Average", "setting": "[1]", "value": 7, "unit": "pg/mL"}, {"measurement": "Serum level IL-6, Average", "setting": "[1]", "value": 2617, "unit": "pg/mL"}, {"measurement": "Serum level IL-18, Average", "setting": "[1]", "value": 150, "unit": "pg/mL"}, {"measurement": "Serum level MCP-1, Average", "setting": "[1]", "value": 5571, "unit": "pg/mL"}, {"measurement": "Serum level MIP-1 beta, Average", "setting": "[1]", "value": 640, "unit": "pg/mL"}, {"measurement": "Serum level TNF alpha, Average", "setting": "[1]", "value": 732, "unit": "pg/mL"}, {"measurement": "survival in the AML model", "setting": "[2]", "value": "increased survival"}]}
